Assay results as given in PubChem BioAssay (NCI).
Several values for one entry are separate records, joined by “and”; a condition that tells them apart may be missing. Equal values may be shown once.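 Exposure lasted 48 hours, with cells grown in 96-well plates and compounds tested at five concentrations. GI50: concentration for 50% inhibition of growth. Definition used: TGI = concentration required for complete inhibition of growth.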

Experiments:
Experiment in all cases: NCI tumour cell line growth inhibition, 48 h
[1] = tested on: 786-0 renal
[2] = tested on: A498 renal
[3] = tested on: A549 NSCLC
[4] = tested on: ACHN renal
[5] = tested on: BT-549 breast
[6] = tested on: CAKI-1 renal
[7] = tested on: CCRF-CEM leukemia
[8] = tested on: COLO 205 colon
[9] = tested on: DU-145 prostate
[10] = tested on: EKVX NSCLC
[11] = tested on: HCC-2998 colon
[12] = tested on: HCT-116 colon
[13] = tested on: HCT-15 colon
[14] = tested on: HL-60(TB) leukemia
[15] = tested on: HOP-62 NSCLC
[16] = tested on: HOP-92 NSCLC
[17] = tested on: HS 578T breast
[18] = tested on: HT29 colon
[19] = tested on: IGROV1 ovarian
[20] = tested on: K-562 leukemia
[21] = tested on: KM12 colon
[22] = tested on: LOX IMVI melanoma
[23] = tested on: M14 melanoma
[24] = tested on: MALME-3M melanoma
[25] = tested on: MCF7 breast
[26] = tested on: MDA-MB-231 breast
[27] = tested on: MDA-MB-435
[28] = tested on: MDA-N
[29] = tested on: MOLT-4 leukemia
[30] = tested on: NCI-H226 lung
[31] = tested on: NCI-H23 lung
[32] = tested on: NCI-H460 lung
[33] = tested on: NCI-H522 lung
[34] = tested on: NCI/ADR-RES ovarian
[35] = tested on: OVCAR-3 ovarian
[36] = tested on: OVCAR-4 ovarian
[37] = tested on: OVCAR-5 ovarian
[38] = tested on: OVCAR-8 ovarian
[39] = tested on: PC-3 prostate
[40] = tested on: RPMI-8226 leukemia
[41] = tested on: RXF 393 renal
[42] = tested on: SF-268 CNS
[43] = tested on: SF-295 CNS
[44] = tested on: SF-539 CNS
[45] = tested on: SK-MEL-2 melanoma
[46] = tested on: SK-MEL-28 melanoma
[47] = tested on: SK-MEL-5 melanoma
[48] = tested on: SK-OV-3 ovarian
[49] = tested on: SN12C renal
[50] = tested on: SNB-19 CNS
[51] = tested on: SNB-75 CNS
[52] = tested on: SW-620 colon
[53] = tested on: T-47D breast
[54] = tested on: TK-10 renal
[55] = tested on: U251 CNS
[56] = tested on: UACC-257 melanoma
[57] = tested on: UACC-62 melanoma
[58] = tested on: UO-31 renal
[59] = tested on: SR leukemia

In the case of `CCC1(N)C(=O)OCc2c1cc1n(c2=O)Cc2cc3ccccc3nc2-1` (stereo not given), the GI50 [1] is reported as 3.31 µM, the TGI [1] is reported as 49.8 µM and > 54.6 µM and the GI50 [2] is reported as 10.6 µM. For the same compound, the TGI [2] was 34.4 µM and 46.2 µM, the GI50 [3] was 5.05 µM and the TGI [3] was over 100 µM. The GI50 [4] was 2.75 µM, the TGI [4] was 12.2 µM and 21.3 µM and the TGI [5] was over 100 µM. The GI50 [6] was 3.26 µM, the TGI [6] was > 52.2 µM and 45.9 µM and the GI50 [7] was 1.96 µM. For the same compound, the GI50 [8] was 16.7 µM, the TGI [8] was over 100 µM and the GI50 [9] was 5.79 µM. The TGI [9] was > 68.7 µM and 21.2 µM, the GI50 [10] was 20.7 µM and the TGI [10] was over 100 µM. The GI50 [11] was 14.1 µM, the TGI [11] was 41.1 µM and > 100 µM and the GI50 [12] was 6.51 µM. The TGI [12] was 23.4 µM and > 100 µM, the GI50 [13] was 19.7 µM and the TGI [13] was over 100 µM. The GI50 [14] was 4.44 µM, the GI50 [15] was 4.77 µM and the TGI [15] was over 100 µM. The GI50 [16] was 28.4 µM, the TGI [16] was > 100 µM and 99 µM and the GI50 [17] was over 69.6 µM. The TGI [17] was over 100 µM, the TGI [18] was over 100 µM and the GI50 [19] was 15.6 µM. For the same compound, the TGI [19] was over 100 µM, the GI50 [20] was 5.36 µM and the TGI [20] was over 100 µM. For the same compound, the GI50 [21] was 26.1 µM, the TGI [21] was over 100 µM and the TGI [22] was 28.2 µM and 33.6 µM. The TGI [23] was 54 µM and > 100 µM, the GI50 [24] was 24.5 µM and the TGI [24] was over 100 µM. For the same compound, the GI50 [25] was 2.82 µM, the TGI [25] was over 100 µM and the GI50 [26] was 49.3 µM. The TGI [26] was over 100 µM, the GI50 [27] was 21.1 µM and the TGI [27] was over 100 µM. For the same compound, the GI50 [28] was 21.8 µM, the TGI [28] was over 100 µM and the GI50 [29] was 1.83 µM. The TGI [29] was over 41.7 µM, the GI50 [30] was 2.71 µM and the TGI [30] was 34.3 µM and 97.1 µM. For the same compound, the TGI [31] was 38.2 µM and 54.4 µM, the GI50 [32] was 1.72 µM and the GI50 [33] was 8.51 µM. For the same compound, the TGI [33] was over 100 µM, the GI50 [34] was 7.18 µM and the TGI [34] was > 54.1 µM and 61.3 µM. The GI50 [35] was 17.2 µM, the TGI [35] was 42.6 µM and > 100 µM and the GI50 [36] was 38.2 µM. The TGI [36] was over 100 µM, the GI50 [37] was 30 µM and the TGI [37] was over 100 µM. It also gave a GI50 [38] of 12 µM, a TGI [38] of over 72.4 µM and a TGI [39] of over 100 µM. For the same compound, the GI50 [40] was 3.66 µM, the TGI [40] was 81.5 µM and > 100 µM and the GI50 [41] was 15.4 µM. The TGI [41] was 63.1 µM and > 100 µM, the TGI [42] was over 100 µM and the GI50 [43] was 3.45 µM. The TGI [43] was 50.2 µM and > 100 µM, the GI50 [44] was 2.93 µM and the TGI [44] was 11.8 µM and > 47.9 µM. It also gave a GI50 [45] of 48.8 µM, a TGI [45] of over 100 µM and a GI50 [46] of 41.7 µM. The TGI [46] was over 100 µM, the GI50 [47] was 7.17 µM and the TGI [47] was 20.4 µM and > 47.8 µM. For the same compound, the GI50 [48] was 8.99 µM, the TGI [48] was 72 µM and > 100 µM and the GI50 [49] was 6.27 µM. It also gave a TGI [49] of over 100 µM, a TGI [50] of over 100 µM and a TGI [51] of over 78.9 µM. For the same compound, the GI50 [52] was 12.9 µM, the TGI [52] was over 100 µM and the GI50 [53] was 5.78 µM. The TGI [53] was > 100 µM and 18.4 µM, the GI50 [54] was 51 µM and the TGI [54] was over 100 µM. The GI50 [55] was 4.9 µM, the TGI [55] was over 100 µM and the GI50 [56] was 24.4 µM. For the same compound, the TGI [56] was over 100 µM, the GI50 [57] was 3.89 µM and the TGI [57] was 20.5 µM and 14.1 µM. The GI50 [58] was 4.43 µM and the TGI [58] was 20.9 µM and 17.4 µM.
`CO/N=C(\C(=O)[N-][n+]1cnn(CC(=O)O)c1)c1csc(N)n1` was tested, and the TGI [1] was over 10 µM, the TGI [3] was over 10 µM and the TGI [4] was over 10 µM. The TGI [5] was over 10 µM, the TGI [6] was over 10 µM and the TGI [7] was over 10 µM. The TGI [8] was over 10 µM, the TGI [9] was over 10 µM and the TGI [10] was over 10 µM. The TGI [11] was over 10 µM, the TGI [12] was over 10 µM and the TGI [13] was over 10 µM. The TGI [14] was over 10 µM, the TGI [15] was over 10 µM and the TGI [16] was over 10 µM. It also gave a TGI [18] of over 10 µM, a TGI [19] of over 10 µM and a TGI [20] of over 10 µM. The TGI [21] was over 10 µM, the TGI [22] was over 10 µM and the TGI [23] was over 10 µM. For the same compound, the TGI [25] was over 10 µM, the TGI [26] was over 10 µM and the TGI [28] was over 10 µM. For the same compound, the TGI [29] was over 10 µM, the TGI [31] was over 10 µM and the TGI [32] was over 10 µM. For the same compound, the TGI [36] was over 10 µM, the TGI [38] was over 10 µM and the TGI [40] was over 10 µM. For the same compound, the TGI [42] was over 10 µM, the TGI [46] was over 10 µM and the TGI [47] was over 10 µM. For the same compound, the TGI [48] was over 10 µM, the TGI [49] was over 10 µM and the TGI [51] was over 10 µM. It also gave a TGI [59] of over 10 µM, a TGI [52] of over 10 µM and a TGI [53] of over 10 µM. It also gave a TGI [54] of over 10 µM, a TGI [56] of over 10 µM and a TGI [57] of over 10 µM.
`CS(=O)(=O)CCC(N)P(=O)(O)O` (stereo not given) gave a TGI [1] of over 100 µM, a TGI [3] of over 100 µM and a TGI [4] of over 100 µM. The TGI [5] was over 100 µM, the TGI [6] was over 100 µM and the TGI [7] was over 100 µM. The TGI [8] was over 100 µM, the TGI [9] was over 100 µM and the TGI [10] was over 100 µM. For the same compound, the TGI [12] was over 100 µM, the TGI [13] was over 100 µM and the TGI [14] was over 100 µM. For the same compound, the TGI [15] was over 100 µM, the TGI [16] was over 100 µM and the TGI [17] was over 100 µM. It also gave a TGI [18] of over 100 µM, a TGI [19] of over 100 µM and a TGI [20] of over 100 µM. The TGI [21] was over 100 µM, the TGI [22] was over 100 µM and the TGI [23] was over 100 µM. For the same compound, the TGI [24] was over 100 µM, the TGI [25] was over 100 µM and the TGI [27] was over 100 µM. The TGI [28] was over 100 µM, the TGI [29] was over 100 µM and the TGI [30] was over 100 µM. For the same compound, the TGI [31] was over 100 µM, the TGI [32] was over 100 µM and the TGI [33] was over 100 µM. For the same compound, the TGI [34] was over 100 µM, the TGI [35] was over 100 µM and the TGI [36] was over 100 µM. It also gave a TGI [37] of over 100 µM, a TGI [38] of over 100 µM and a TGI [39] of over 100 µM. It also gave a TGI [40] of over 100 µM, a TGI [42] of over 100 µM and a TGI [43] of over 100 µM. The TGI [45] was over 100 µM, the TGI [46] was over 100 µM and the TGI [47] was over 100 µM. It also gave a TGI [48] of over 100 µM, a TGI [49] of over 100 µM and a TGI [50] of over 100 µM. For the same compound, the TGI [51] was over 100 µM, the TGI [59] was over 100 µM and the TGI [52] was over 100 µM. For the same compound, the TGI [53] was over 100 µM, the TGI [54] was over 100 µM and the TGI [55] was over 100 µM. The TGI [56] was over 100 µM, the TGI [57] was over 100 µM and the TGI [58] was over 100 µM.
